Data as given in the supplement of paper PMC12592484.

Assays:
Assay in all cases: drug sensitivity score (DSS2, normalised partial AUC of dose-response, 72 h CellTiter-Glo viability) (DSS (dimensionless)); higher = more sensitive (stronger growth inhibition / cytotoxicity); extreme values may be limits of the assay
22Rv1 = system: 22Rv1
Outline: (§1)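 Viability of low-passage primary prostate cancer-associated fibroblasts, PF179T, WPMY-1, LNCaP and 22Rv1 cells was read by CellTiter-Glo 2.0 luminescence 72 h after seeding onto compounds pre-dispensed in 384-well plates at five doses over a 10,000-fold range. Readings were scaled between vehicle and positive-control wells. Sensitivity is reported as a drug sensitivity score from BREEZE, namely a partial area under the fitted logistic curve divided by the log of its upper asymptote, where higher means more sensitive.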

CAF#1 = system: CAF#1 (primary prostate cancer-associated fibroblasts of myCAF-like type)
Outline: as §1

CAF#2 = system: CAF#2 (primary prostate cancer-associated fibroblasts of iCAF-like type)
Outline: as §1

CAF#3 = system: CAF#3 (primary prostate cancer-associated fibroblasts of myCAF-like type)
Outline: as §1

CAF#4 = system: CAF#4 (primary prostate cancer-associated fibroblasts of iCAF-like type)
Outline: as §1

CAF#5 = system: CAF#5 (primary prostate cancer-associated fibroblasts of myCAF-like type)
Outline: as §1

CAF#6 = system: CAF#6 (primary prostate cancer-associated fibroblasts of iCAF-like type)
Outline: as §1

CAF#7 = system: CAF#7 (primary prostate cancer-associated fibroblasts of myCAF-like type)
Outline: as §1

LNCAP = system: LNCAP
Outline: as §1

PF179T = system: PF179T
Outline: as §1

WPMY-1 = system: WPMY-1
Outline: as §1

| Structure (SMILES) | drug sensitivity score (22Rv1) | drug sensitivity score (CAF#1) | drug sensitivity score (CAF#2) | drug sensitivity score (CAF#3) | drug sensitivity score (CAF#4) | drug sensitivity score (CAF#5) | drug sensitivity score (CAF#6) | drug sensitivity score (CAF#7) | drug sensitivity score (LNCAP) | drug sensitivity score (PF179T) | drug sensitivity score (WPMY-1) |
| --- | --- | --- | --- | --- | --- | --- | --- | --- | --- | --- | --- |
| CN(C)Cc1ccc(S(=O)(=O)n2ccc(/C=C/C(=O)NO)c2)cc1 [Resminostat] (tested concentration range 1-10000 nM) | 12.3 | 4.4 | 5.9 | 6 | 6 | 4.6 | 5.9 | 4.7 | 12.2 | 6 | 13.6 |
| CCc1cncnc1N1CCN(Cc2nc3ccc(C(F)(F)F)cc3[nH]2)CC1 (tested concentration range 1-10000 nM) | 2.9 | 1.8 | 2.4 | 7.6 | 1.1 | 1.6 | 0.5 | 0.9 | 4 | 0 | 1.7 |
| O=C(c1cccc(Cl)c1F)N1CCN(Cc2cccc(Nc3nccs3)n2)CC1 [MK-8745] (tested concentration range 1-10000 nM) | 4 | 2.6 | 4.3 | 6.8 | 1.1 | 2.8 | 3.4 | 2.6 | 14.7 | 5 | 7.6 |
| Nc1nc(NC2CC2)cc(-c2cccc(Cl)c2Cl)n1 [TH588] (tested concentration range 2.5-25000 nM) | 4.2 | 2 | 2.7 | 3 | 2.7 | 1.7 | 1.9 | 0.5 | 6.5 | 2.8 | 7.9 |
| Cn1ncc(Cl)c1-c1cc(C(=O)N[C@H](CN)Cc2cccc(F)c2)sc1Cl [Afuresertib] (tested concentration range 0.1-1000 nM) | 4.6 | 3.2 | 1.5 | 0 | 1.7 | 2 | 0.6 | 0 | 17 | 0.1 | 0.6 |
| C=CC(=O)N1CCC[C@@H](n2nc(-c3ccc(Oc4ccccc4)cc3)c3c(N)ncnc32)C1 [Ibrutinib] (tested concentration range 0.1-1000 nM) | 0 | 0.1 | 0 | 0.2 | 0 | 0.7 | 0 | 0 | 0 | 0 | 0 |
| Cc1nc(=O)c2cc(CN(C)c3ccc(C(=O)N[C@@H](CCC(=O)O)C(=O)O)s3)ccc2[nH]1 [Raltitrexed] (tested concentration range 0.1-1000 nM) | 0 | 3.3 | 4.4 | 0 | 0.8 | 2.8 | 0.2 | 0 | 11.1 | 0.3 | 14 |
| C[C@@H]1C[C@H]2[C@@H]3CCC4=CC(=O)C=C[C@]4(C)[C@@]3(F)[C@@H](O)C[C@]2(C)[C@@]1(O)C(=O)CO [Dexamethasone] (tested concentration range 1-10000 nM) | 0 | 0 | 0 | 0 | 0 | 0 | 0 | 0.3 | 0 | 0 | 0 |
| Cn1cc(C[C@@H](N)C(=O)O)c2ccccc21 [Indoximod] (tested concentration range 0.5-5000 nM) | 0 | 0 | 0 | 0 | 0 | 0.6 | 0 | 0 | 0 | 0 | 0 |
| CC(C)(C#N)c1cc(Cn2cncn2)cc(C(C)(C)C#N)c1 [Anastrozole] (tested concentration range 1-10000 nM) | 0 | 0 | 0 | 0 | 0 | 0 | 0 | 0 | 0 | 0 | 0 |
| CC(C)NC(=O)COc1cccc(-c2nc(Nc3ccc4[nH]ncc4c3)c3ccccc3n2)c1 [KD025] (tested concentration range 0.5-5000 nM) | 1 | 0 | 0.1 | 2.2 | 0.1 | 1.1 | 0 | 0.5 | 4.5 | 0 | 2.1 |
| COc1cc2nccc(Oc3ccc(NC(=O)NC4CC4)c(Cl)c3)c2cc1C(N)=O [Lenvatinib] (tested concentration range 0.2-2500 nM) | 0 | 2.1 | 4.3 | 4.1 | 3 | 0.3 | 3.8 | 5.8 | 1.8 | 0.9 | 0.1 |
| Cc1cc(Nc2ncc(Cl)c(Nc3ccccc3S(=O)(=O)C(C)C)n2)c(OC(C)C)cc1C1CCNCC1 [Ceritinib] (tested concentration range 0.2-2500 nM) | 3.1 | 4.6 | 5.1 | 3 | 2.4 | 2.6 | 1.2 | 2.3 | 4.2 | 0.9 | 1 |
| O=C(/C=C/c1cccc(S(=O)(=O)Nc2ccccc2)c1)NO [Belinostat] (tested concentration range 1-10000 nM) | 19.6 | 10 | 12.3 | 4.8 | 10 | 8.6 | 6.8 | 6.6 | 19.5 | 9.8 | 18.5 |
| C[C@@H]1CCN(C(=O)CC#N)C[C@@H]1N(C)c1ncnc2[nH]ccc12 [Tofacitinib] (tested concentration range 0.5-5000 nM) | 0 | 1.3 | 1 | 1.6 | 0 | 0.4 | 0 | 0.1 | 0 | 0 | 0 |
| CC(C)C[C@H](NC(=O)[C@H](CCc1ccccc1)NC(=O)CN1CCOCC1)C(=O)N[C@@H](Cc1ccccc1)C(=O)N[C@@H](CC(C)C)C(=O)[C@@]1(C)CO1 [Carfilzomib] (tested concentration range 0.1-1000 nM) | 27.5 | 17.5 | 18.9 | 17.1 | 13.3 | 22 | 15.9 | 16.7 | 27.2 | 20.3 | 31.5 |
| C=C(c1ccc(C(=O)O)cc1)c1cc2c(cc1C)C(C)(C)CCC2(C)C [Bexarotene] (tested concentration range 1-10000 nM) | 1.6 | 4.7 | 10.1 | 0 | 3.7 | 3.8 | 0 | 1.2 | 0 | 10.2 | 2.1 |
| Nc1ccccc1NC(=O)c1ccc(CNc2nccc(-c3cccnc3)n2)cc1 [Mocetinostat] (tested concentration range 1-10000 nM) | 14.1 | 9.4 | 11.3 | 9.2 | 8.4 | 11.8 | 7.7 | 9.4 | 13.3 | 13.5 | 12 |
| Cc1nc(Nc2ncc(C(=O)Nc3c(C)cccc3Cl)s2)cc(N2CCN(CCO)CC2)n1 [Dasatinib] (tested concentration range 0.1-1000 nM) | 0 | 13.8 | 15.5 | 13.7 | 10.3 | 15.2 | 13 | 15.3 | 5 | 11.7 | 5.3 |
| Cn1cc(-c2ccc(F)c(C(F)(F)F)c2)nc1C1CCN(c2ncnc3[nH]ncc23)CC1 (tested concentration range 1-10000 nM) | 2.3 | 1.3 | 1 | 0 | 1.4 | 1.5 | 0.5 | 0.4 | 7.1 | 0 | 0 |
| Cc1ccc(-c2cc(C(F)(F)F)nn2-c2ccc(S(N)(=O)=O)cc2)cc1 [Celecoxib] (tested concentration range 1-10000 nM) | 0 | 0 | 0 | 0 | 0 | 0 | 0 | 0 | 1.2 | 0 | 0 |
| CC[C@@H]1CN(C(=O)NCC(F)(F)F)C[C@@H]1c1cnc2cnc3[nH]ccc3n12 [Upadacitinib] (tested concentration range 1-10000 nM) | 0 | 0 | 1.3 | 0 | 0.1 | 0.8 | 0 | 0 | 0 | 0 | 0.5 |
| C[C@@H]1COCCN1c1cc(C2([S@](C)(=N)=O)CC2)nc(-c2cc[nH]c3nccc2-3)n1 [Ceralasertib] (tested concentration range 2.5-25000 nM) | 10 | 6.6 | 9.3 | 6.7 | 8 | 7.8 | 6.2 | 6.3 | 10.7 | 8.1 | 13.9 |
| CC1=C(/C=C/C(C)=C/C=C/C(C)=C/C(=O)O)C(C)(C)CCC1 [Tretinoin] (tested concentration range 1-10000 nM) | 0 | 1.4 | 5 | 0.2 | 0 | 1.7 | 2.7 | 5 | 0 | 8.2 | 0 |
